The results in this text go back to ChEMBL document CHEMBL1201862, “PubChem BioAssay data set” (2004).

Molecules are shown by their SMILES. The source made the active and inactive calls.

Test [1] addresses Peroxisome proliferator-activated receptor gamma/Nuclear receptor coactivator 1 (Homo sapiens, UniProt P37231). Briefly: TR-FRET dose response biochemical High Throughput Screening assay for agonists of the steroid receptor coactivator 1 (SRC-1) recruitment by the peroxisome proliferator-activated receptor gamma (PPAR gamma): non-selective agonists. [Related pubchem assays (depositor defined):AID1300, AID1808, AID504735, AID631]. It is filed as protein assay. A general note: In TR-FRET formats the signal depends on donor and acceptor labels being close together.

Test [2] has as its target Peroxisome proliferator-activated receptor gamma/Nuclear receptor coactivator 2 (Homo sapiens, UniProt P37231). Briefly: TR-FRET dose response biochemical High Throughput Screening assay for agonists of the steroid receptor coactivator 2 (SRC-2) recruitment by the peroxisome proliferator-activated receptor gamma (PPAR gamma): non-selective agonists. [Related pubchem assays: 1297, 1032 ]. It is filed as functional.

In test [3] the target is Peroxisome proliferator-activated receptor gamma/Nuclear receptor coactivator 3 (Homo sapiens, UniProt P37231). Briefly: TR-FRET dose response biochemical High Throughput Screening assay for agonists of the steroid receptor coactivator 3 (SRC-3) recruitment by the peroxisome proliferator-activated receptor gamma (PPAR gamma): non-selective agonists. [Related pubchem assays: 1301 (Confirmation screen.), 1048 (Primary screen.)]. It counts as functional.
Chain of Peroxisome proliferator-activated receptor gamma/Nuclear receptor coactivator 3 (P37231 whole entry): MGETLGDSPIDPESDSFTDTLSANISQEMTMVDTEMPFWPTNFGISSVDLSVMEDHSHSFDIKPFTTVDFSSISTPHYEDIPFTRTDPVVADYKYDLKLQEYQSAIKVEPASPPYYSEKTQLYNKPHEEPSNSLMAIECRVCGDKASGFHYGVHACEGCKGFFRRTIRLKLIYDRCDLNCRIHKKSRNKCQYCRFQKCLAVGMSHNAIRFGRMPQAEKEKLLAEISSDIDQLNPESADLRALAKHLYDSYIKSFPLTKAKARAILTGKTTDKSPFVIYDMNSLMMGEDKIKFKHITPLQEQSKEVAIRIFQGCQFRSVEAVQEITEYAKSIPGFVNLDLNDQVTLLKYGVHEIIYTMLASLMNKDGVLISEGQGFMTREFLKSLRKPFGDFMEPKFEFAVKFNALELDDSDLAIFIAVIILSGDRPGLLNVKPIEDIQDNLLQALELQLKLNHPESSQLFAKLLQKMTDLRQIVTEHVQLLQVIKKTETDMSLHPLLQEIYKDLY
Chain of Peroxisome proliferator-activated receptor gamma/Nuclear receptor coactivator 3 (Q9Y6Q9 whole entry, further chain): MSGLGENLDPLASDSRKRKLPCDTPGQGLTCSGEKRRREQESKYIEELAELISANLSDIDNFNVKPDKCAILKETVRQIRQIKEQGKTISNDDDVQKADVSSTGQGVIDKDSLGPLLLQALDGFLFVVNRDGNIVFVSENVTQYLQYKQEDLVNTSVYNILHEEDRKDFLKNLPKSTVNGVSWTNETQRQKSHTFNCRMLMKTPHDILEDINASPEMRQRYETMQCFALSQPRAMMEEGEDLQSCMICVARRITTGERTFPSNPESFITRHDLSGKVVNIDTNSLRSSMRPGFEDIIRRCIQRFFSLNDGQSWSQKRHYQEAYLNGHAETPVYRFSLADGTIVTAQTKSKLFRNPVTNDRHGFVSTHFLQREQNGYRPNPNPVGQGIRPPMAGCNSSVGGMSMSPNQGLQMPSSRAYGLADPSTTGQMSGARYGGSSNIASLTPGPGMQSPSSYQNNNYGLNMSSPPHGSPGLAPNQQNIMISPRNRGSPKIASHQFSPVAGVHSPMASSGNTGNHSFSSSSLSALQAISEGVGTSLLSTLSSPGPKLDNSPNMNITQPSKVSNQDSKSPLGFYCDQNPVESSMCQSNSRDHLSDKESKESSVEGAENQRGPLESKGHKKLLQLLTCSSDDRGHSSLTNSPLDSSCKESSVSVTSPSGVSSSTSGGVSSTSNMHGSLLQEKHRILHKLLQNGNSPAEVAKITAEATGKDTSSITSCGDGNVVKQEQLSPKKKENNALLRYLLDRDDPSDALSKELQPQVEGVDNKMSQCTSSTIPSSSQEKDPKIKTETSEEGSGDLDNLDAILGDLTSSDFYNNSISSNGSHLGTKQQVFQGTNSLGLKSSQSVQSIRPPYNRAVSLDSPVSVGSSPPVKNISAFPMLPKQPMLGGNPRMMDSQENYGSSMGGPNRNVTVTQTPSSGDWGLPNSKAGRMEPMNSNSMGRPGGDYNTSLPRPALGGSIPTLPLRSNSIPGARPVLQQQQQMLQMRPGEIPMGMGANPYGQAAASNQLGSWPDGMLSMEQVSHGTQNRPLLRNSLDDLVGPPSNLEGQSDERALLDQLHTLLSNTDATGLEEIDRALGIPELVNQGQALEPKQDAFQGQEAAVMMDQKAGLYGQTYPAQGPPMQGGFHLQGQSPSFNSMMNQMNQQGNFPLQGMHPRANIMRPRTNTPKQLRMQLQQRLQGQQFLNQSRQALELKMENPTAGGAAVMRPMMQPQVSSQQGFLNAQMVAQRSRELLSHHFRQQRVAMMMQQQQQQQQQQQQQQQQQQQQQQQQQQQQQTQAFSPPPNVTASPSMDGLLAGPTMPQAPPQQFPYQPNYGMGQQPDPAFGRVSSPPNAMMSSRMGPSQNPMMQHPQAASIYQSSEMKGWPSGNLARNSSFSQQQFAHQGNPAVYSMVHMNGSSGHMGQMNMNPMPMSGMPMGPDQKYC

The next test concerns the target T1, Protein skinhead-1 (Caenorhabditis elegans, UniProt P34707).
T1 sequence (P34707 whole entry): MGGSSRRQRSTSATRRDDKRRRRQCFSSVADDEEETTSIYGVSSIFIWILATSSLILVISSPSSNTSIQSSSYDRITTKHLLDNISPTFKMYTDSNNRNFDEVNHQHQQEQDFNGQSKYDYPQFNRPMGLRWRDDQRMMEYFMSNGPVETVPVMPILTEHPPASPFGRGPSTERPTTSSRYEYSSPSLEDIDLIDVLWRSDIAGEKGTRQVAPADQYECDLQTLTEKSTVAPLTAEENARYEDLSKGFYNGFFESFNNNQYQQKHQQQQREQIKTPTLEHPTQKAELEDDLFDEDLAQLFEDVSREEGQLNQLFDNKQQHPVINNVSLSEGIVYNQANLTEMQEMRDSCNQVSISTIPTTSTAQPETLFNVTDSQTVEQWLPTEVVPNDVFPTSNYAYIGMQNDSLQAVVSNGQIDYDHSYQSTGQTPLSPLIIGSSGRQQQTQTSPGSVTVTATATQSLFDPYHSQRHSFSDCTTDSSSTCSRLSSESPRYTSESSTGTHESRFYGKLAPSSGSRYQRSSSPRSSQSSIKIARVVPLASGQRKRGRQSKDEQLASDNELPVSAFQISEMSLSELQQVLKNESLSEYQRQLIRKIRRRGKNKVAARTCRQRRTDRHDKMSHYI
It is filed as functional.

In the next test the target is Major prion protein (Homo sapiens, UniProt P04156). It counts as functional, cell-based.
The target in test [4] is T2, 1-phosphatidylinositol 4,5-bisphosphate phosphodiesterase beta-3 (Homo sapiens, UniProt Q01970).
T2 sequence (Q01970 whole entry): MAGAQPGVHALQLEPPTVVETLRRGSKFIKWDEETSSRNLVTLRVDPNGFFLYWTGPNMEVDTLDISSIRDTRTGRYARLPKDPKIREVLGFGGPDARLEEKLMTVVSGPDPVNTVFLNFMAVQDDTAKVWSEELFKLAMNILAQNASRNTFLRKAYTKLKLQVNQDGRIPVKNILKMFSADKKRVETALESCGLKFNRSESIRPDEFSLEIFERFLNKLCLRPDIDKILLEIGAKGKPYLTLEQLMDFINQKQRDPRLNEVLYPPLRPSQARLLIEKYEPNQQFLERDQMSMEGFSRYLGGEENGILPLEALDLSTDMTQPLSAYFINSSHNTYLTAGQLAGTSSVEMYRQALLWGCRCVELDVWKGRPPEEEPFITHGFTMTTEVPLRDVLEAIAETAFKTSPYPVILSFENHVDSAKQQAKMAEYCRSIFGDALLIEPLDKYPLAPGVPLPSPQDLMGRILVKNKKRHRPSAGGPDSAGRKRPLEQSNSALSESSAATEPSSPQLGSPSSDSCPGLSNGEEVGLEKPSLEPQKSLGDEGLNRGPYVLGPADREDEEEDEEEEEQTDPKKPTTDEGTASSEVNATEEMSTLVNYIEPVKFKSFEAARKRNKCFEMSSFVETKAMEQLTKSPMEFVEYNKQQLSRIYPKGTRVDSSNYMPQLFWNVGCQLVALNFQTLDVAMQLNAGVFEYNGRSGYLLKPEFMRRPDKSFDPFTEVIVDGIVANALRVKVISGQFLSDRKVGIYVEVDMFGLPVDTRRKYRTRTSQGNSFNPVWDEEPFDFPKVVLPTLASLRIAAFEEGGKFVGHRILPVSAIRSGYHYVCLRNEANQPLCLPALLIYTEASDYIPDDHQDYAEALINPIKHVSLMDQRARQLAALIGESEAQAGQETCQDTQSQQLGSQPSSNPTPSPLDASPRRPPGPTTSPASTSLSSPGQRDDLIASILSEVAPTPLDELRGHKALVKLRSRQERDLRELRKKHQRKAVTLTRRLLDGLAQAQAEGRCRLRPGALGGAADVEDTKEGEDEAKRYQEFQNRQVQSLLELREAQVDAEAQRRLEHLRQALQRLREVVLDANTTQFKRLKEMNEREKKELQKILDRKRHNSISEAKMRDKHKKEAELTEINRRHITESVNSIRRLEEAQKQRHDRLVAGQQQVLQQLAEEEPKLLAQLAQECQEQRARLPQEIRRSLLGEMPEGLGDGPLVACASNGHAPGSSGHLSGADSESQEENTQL
Briefly: Fluorescence-based biochemical high throughput dose response assay to identify inhibitors of phospholipase C isozymes (PLC-B3).

In test [5] the target is T3, 1-phosphatidylinositol 4,5-bisphosphate phosphodiesterase gamma-1 (Homo sapiens, UniProt P19174).
T3 sequence (P19174 whole entry): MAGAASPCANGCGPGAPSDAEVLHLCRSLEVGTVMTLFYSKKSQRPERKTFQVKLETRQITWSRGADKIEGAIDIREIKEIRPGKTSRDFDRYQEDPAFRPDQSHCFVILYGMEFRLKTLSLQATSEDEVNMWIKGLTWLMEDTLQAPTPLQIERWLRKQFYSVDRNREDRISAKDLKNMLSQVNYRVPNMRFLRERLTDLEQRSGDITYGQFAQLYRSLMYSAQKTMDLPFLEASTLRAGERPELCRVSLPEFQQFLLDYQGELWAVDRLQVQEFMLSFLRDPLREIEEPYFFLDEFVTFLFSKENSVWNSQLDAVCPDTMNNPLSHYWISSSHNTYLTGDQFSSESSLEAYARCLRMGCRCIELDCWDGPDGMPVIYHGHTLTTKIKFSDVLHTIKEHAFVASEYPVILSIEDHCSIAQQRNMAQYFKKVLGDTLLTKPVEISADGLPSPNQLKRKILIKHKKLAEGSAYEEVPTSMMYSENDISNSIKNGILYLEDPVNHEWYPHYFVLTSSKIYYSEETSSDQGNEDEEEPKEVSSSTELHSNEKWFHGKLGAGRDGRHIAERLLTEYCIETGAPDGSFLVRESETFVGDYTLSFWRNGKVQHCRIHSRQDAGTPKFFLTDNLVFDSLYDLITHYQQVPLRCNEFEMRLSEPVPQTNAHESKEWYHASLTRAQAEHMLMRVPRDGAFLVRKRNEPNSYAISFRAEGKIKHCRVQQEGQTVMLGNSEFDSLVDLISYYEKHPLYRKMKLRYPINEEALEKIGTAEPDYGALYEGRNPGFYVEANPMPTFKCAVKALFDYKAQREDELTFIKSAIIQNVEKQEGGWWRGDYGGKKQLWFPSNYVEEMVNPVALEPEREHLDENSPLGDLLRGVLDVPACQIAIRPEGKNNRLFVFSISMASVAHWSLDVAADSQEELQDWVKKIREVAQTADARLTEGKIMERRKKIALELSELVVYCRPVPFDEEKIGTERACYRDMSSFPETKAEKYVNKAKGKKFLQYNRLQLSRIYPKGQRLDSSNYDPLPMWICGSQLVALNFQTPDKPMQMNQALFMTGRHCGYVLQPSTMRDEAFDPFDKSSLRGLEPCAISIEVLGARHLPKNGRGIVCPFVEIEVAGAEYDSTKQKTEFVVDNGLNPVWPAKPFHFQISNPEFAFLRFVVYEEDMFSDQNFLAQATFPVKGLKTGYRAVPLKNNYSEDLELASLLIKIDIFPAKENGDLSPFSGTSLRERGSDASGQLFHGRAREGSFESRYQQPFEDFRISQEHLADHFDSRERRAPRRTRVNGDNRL
Briefly: Counterscreen for inhibitors of phospholipase C isozymes (PLC-B3): Fluorescence-based biochemical high throughput dose response assay to identify inhibitors of phospholipase C isozymes (PLC-gamma1).

The target in test [6] is DNA dC->dU-editing enzyme APOBEC-3G (Homo sapiens, UniProt Q9HC16). It is filed as functional.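 Also: Dose-response counterscreen measuring inhibition of APOBEC3G DNA deaminase activity, run while confirming APOBEC3A inhibitors.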
Chain of DNA dC->dU-editing enzyme APOBEC-3G (Q9HC16 whole entry, the tested form may be a part): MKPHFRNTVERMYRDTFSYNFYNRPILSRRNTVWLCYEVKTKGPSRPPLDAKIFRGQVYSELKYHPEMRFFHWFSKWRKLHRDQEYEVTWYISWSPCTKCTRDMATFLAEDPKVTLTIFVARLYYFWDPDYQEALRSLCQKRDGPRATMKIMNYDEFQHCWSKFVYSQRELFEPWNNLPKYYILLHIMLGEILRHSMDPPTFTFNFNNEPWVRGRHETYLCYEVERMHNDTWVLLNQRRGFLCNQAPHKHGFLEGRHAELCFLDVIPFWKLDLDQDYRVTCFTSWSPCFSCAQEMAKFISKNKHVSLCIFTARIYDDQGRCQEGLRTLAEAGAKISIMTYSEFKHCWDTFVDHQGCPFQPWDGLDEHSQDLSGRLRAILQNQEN
Test [7] has as its target T4, Carboxy-terminal domain RNA polymerase II polypeptide A small phosphatase 1 (Homo sapiens, UniProt Q9GZU7).
T4 sequence (Q9GZU7 whole entry): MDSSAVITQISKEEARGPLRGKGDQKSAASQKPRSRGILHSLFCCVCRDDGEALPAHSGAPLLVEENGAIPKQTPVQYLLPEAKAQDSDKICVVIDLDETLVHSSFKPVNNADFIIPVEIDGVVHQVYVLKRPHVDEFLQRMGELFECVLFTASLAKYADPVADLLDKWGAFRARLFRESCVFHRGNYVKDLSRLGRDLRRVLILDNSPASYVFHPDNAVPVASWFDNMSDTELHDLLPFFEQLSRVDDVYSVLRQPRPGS
Briefly: CTDSP1 inhibitors, concentration-response, biochemical, absorbance readout, ultra-high-throughput screen actives (AID 540297). It counts as functional.

For a further test, the target named is T5, Caspase-6 (Homo sapiens, UniProt P55212).
T5 sequence (P55212 whole entry): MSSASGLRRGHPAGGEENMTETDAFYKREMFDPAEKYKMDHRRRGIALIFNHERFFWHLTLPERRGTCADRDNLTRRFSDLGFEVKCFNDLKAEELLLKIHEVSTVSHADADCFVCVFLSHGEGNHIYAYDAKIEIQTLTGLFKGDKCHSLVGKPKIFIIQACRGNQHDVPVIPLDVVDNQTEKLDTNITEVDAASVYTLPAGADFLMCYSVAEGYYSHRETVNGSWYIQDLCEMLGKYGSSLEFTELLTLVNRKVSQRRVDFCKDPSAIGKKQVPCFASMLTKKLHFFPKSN
Briefly: inhibition of CASP6 peptide cleavage – biochemical, VEID-R110 fluorescence, cherry-pick, dose response (AID 720632).

Test [8] has as its target DNA dC->dU-editing enzyme APOBEC-3A (Homo sapiens, UniProt P31941). Briefly: Dose Response confirmation of small molecule APOBEC3A DNA Deaminase Inhibitors via a fluorescence-based single-stranded DNA deaminase assay. [Related pubchem assays (depositor defined):AID493011, AID493024]. It is filed as functional.
Test [9] relates to Streptococcus sp. 'group A'. Briefly: Streptococcus pyogenes SK(-)GAS viability under kanamycin – luminescence, BacTiterGlo, confirmation, counter-screen for streptokinase expression inhibitor project, dose response (AID 1900). It counts as functional, organism-based. In general terms: A counterscreen serves to expose hits that act by an unwanted route or on another target.
The next test concerns Streptococcus. Briefly: GAS UMAA2166 growth inhibition – luminescence, BacTiterGlo, counter-screen for streptokinase expression inhibitor project, dose response (AID 1915).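 Also: potency for reduction of bacterial viability or growth.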 It is filed as functional, organism-based.
For the next test, the target named is T6, Streptokinase A (Streptococcus pyogenes serotype M1, UniProt P10520).
T6 sequence (P10520 whole entry): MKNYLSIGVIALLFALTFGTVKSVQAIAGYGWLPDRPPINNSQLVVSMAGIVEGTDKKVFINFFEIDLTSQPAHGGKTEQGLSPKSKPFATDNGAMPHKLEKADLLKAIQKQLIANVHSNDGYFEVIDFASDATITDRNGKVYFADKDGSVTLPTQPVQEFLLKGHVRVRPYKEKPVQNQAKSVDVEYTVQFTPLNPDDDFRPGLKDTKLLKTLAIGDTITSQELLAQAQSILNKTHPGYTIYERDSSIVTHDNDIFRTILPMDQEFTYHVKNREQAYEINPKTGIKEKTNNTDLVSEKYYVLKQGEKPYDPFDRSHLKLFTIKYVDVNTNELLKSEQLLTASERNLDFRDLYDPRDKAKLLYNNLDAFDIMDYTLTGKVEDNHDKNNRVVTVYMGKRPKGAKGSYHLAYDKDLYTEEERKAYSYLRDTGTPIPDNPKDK
Briefly: viability-normalized secreted streptokinase activity reduction – plasminogen activation absorbance, OD405, dose response (AID 1914).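 Also: secreted streptokinase activity via plasminogen activation per viability signal from cell pellet.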 It counts as functional, Streptococcus pyogenes M1 GAS.

Test [10] addresses Induced myeloid leukemia cell differentiation protein Mcl-1 (Homo sapiens, UniProt Q07820). It is filed as functional.
Test [11] concerns the target Eukaryotic translation initiation factor 4E (Mus musculus, UniProt P63073). Briefly: blockers of eIF4G binding by eIF4E – biochemical, TR-FRET, dose response (AID 855).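 Also: potency for disrupting eIF4E binding to eIF4GI seen as loss of FRET.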 It is filed as functional.

Chain of Peroxisome proliferator-activated receptor gamma/Nuclear receptor coactivator 1 (P37231 whole entry): as the sequence (P37231 whole entry) above
Chain of Peroxisome proliferator-activated receptor gamma/Nuclear receptor coactivator 1 (Q15788 whole entry, further chain): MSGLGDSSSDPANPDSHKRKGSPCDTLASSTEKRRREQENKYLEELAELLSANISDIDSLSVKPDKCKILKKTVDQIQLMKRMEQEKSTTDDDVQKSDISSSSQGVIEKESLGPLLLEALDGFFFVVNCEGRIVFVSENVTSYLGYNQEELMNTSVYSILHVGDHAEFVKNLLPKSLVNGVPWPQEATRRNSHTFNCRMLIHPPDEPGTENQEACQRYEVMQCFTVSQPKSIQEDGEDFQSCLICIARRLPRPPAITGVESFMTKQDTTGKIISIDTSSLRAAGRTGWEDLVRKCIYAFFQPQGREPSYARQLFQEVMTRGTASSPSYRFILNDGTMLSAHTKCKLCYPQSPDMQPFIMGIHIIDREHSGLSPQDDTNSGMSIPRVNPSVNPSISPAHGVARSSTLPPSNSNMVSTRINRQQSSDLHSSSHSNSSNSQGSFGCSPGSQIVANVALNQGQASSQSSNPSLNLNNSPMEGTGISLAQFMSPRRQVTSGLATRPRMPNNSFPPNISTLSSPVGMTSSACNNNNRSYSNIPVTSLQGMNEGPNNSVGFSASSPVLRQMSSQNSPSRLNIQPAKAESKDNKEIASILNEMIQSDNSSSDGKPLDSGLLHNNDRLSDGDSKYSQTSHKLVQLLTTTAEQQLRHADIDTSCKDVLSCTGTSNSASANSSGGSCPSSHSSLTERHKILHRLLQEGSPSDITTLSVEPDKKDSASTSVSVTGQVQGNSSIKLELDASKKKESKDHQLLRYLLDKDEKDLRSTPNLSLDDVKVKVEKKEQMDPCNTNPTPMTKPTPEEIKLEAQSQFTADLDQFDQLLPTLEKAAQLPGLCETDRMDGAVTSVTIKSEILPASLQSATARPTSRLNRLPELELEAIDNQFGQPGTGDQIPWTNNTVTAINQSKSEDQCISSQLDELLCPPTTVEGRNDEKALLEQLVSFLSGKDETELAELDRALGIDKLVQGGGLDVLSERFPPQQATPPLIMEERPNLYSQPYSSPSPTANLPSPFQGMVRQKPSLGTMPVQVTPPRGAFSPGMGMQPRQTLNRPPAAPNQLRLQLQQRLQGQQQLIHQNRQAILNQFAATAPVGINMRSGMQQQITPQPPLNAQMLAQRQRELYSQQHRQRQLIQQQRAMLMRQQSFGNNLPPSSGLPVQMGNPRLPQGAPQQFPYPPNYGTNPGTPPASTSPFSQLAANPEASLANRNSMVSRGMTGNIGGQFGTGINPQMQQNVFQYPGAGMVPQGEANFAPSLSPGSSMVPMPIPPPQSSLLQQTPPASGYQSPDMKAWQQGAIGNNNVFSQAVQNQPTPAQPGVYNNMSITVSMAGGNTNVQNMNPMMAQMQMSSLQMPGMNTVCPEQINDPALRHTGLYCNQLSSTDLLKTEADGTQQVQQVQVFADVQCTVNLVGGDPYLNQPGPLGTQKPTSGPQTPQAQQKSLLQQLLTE
Chain of Induced myeloid leukemia cell differentiation protein Mcl-1 (Q07820 whole entry): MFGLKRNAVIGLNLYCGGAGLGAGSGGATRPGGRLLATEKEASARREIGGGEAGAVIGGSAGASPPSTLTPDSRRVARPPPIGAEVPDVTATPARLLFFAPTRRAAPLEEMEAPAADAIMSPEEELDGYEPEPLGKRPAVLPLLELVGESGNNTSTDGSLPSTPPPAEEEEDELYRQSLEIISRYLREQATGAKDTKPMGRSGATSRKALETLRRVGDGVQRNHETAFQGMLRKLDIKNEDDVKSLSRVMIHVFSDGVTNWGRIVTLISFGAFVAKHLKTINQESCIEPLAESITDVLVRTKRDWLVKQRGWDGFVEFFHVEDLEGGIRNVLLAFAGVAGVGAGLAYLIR
Chain of DNA dC->dU-editing enzyme APOBEC-3A (P31941 whole entry): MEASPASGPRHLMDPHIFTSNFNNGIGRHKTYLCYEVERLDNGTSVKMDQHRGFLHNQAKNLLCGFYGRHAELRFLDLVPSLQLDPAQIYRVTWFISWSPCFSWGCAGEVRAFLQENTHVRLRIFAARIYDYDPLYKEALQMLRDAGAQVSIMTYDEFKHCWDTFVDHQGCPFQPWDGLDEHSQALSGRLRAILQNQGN
Chain of Eukaryotic translation initiation factor 4E (P63073 whole entry): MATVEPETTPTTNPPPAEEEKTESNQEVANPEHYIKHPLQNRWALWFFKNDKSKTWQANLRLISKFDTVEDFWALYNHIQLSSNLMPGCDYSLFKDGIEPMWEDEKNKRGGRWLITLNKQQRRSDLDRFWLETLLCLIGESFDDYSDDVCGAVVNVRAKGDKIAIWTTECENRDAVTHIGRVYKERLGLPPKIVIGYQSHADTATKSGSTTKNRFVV

The EC50 is the concentration giving half of the maximal effect. By IC50 is commonly meant the concentration that gives 50% inhibition. As for `Cc1cc2cc(CNC(=O)c3ccc(S(=O)(=O)N4CCCC4)cc3)ccc2n1C`, the values for the concentration for a half-maximal effect (EC50) in test [1], in test [2] and in test [3] were 3.68 µM (active), 3.91 µM (active) and 8.02 µM (active), respectively. In addition, the values for the IC50 in “cells”, at Protein skinhead-1 and at Major prion protein were > 138 µM (inactive), > 100 µM (inactive) and 21.5 µM (inactive), respectively.
As to `CCOc1cccc(C(=O)Nc2ccc(NC(=O)c3ccccc3)c(C)c2)c1`, the IC50 in [4] and in test [5] was > 122 µM (inactive) throughout.
Usually AC50 stands for the midpoint of the concentration-response curve, whichever way the signal moves. As for `CC1(CC(=O)N/N=C/c2cc([N+](=O)[O-])c(O)cc2O)OCCO1`, the IC50 was 41 µM (active) in test [6]; > 122 µM (inactive) in [4]; 4.41 µM (active) in test [7]; > 122 µM (inactive) in test [5]; 19.3 µM (active) in [8]. In addition, the AC50 at Caspase-6 is 23.7 µM (active).
For `O=C(CC1S/C(=N\c2ccccc2)N(CCc2c[nH]c3ccccc23)C1=O)Nc1ccccc1F` (stereo not drawn), the concentration giving a half-maximal response (EC50) in test [9] was 13.2 µM (active); with Streptococcus it was 43.5 µM (active); at Streptokinase A it was 14 µM (inconclusive). The IC50 in test [4] and in test [5] was > 122 µM (inactive) throughout.
In the case of `O=C(CSc1ccsc1[N+](=O)[O-])Nc1cc(F)ccc1F`, the values for the IC50 in [10], in [11] and in test [7] were 6.52 µM (not active), 28.4 µM (active) and 2.76 µM (active), respectively. For the same compound, on Caspase-6, the AC50 was 5.74 µM (active).
